The results in this text go back to patent US7345033B2, “Carbamoyl-and thiocarbamoyl-phosphonates and pharmaceutical compositions comprising them” (Yissum Research Development Company of the Hebrew …, priority 2003, dated 2008).

Entries after “also recorded” stand apart in the source; their conditions may differ. Where two headings read alike, the source gives them in different places.

One series deals with cancer cells. Briefly: Matrigel chemoinvasion assay (Boyden chambers). The conditions noted are these: 6 h, read-out: Chemoinvasion % inhibition at 50 μM. It counts as cell-based. The text has this: Matrigel Chemoinvasion Assay
This assay measures in vitro the potency of the compounds to repress the invasiveness of cancer cells, by inhibiting the MMPs produced by them. The assay uses a reconstituted basement membrane preparation, which is similar to the natural basement membranes that the tumor cells have to cross, in order to disseminate. The compounds examined have been added to the invasion chambers at various concentrations, and the resulted invasion was compared to untreated preparations.
Description of the of the Matrigel Chemoinvasion Experiment
a) The chemoinvasion assays were performed in Boyden chambers. Matrigel (25 μg) was dried on a polycarbonated filter (PVP free, Nucleopore). Fibroblast conditioned medium (obtained from confluent NIH-3T3 cells cultured in serum free DMEM) is used as the chemoattractant. […] The chambers were incubated in a humidified incubator at 37° C. in 5% CO2/95% air atmosphere for 6 h. The cells, which traversed the Matrigel layer and attached to the lower surface of the filter, were stained with Diff Quick (American Scientific Products) and counted.
The various compounds were examined as potential inhibitors at three concentrations: 100 μM, 50 μM and 10 μM.

Series [1] in a line: Acute in vivo toxicity in healthy mice. Conditions: daily for two weeks at 50, 250 and 500 mg/kg. From the text: Determination of Acute in vivo Toxicity of Representative Carbamoylphosphonates
The subject of a further series is restenosis. Nature of the series: Rabbit model of restenosis (balloon injury, hypercholesterolemic). It is filed as in vivo, New Zealand White rabbits. Conditions: IP, total 70 mg/kg in 5 doses on days -1, +1, +4, +6, +8; after 30 days. The method, then: Rabbit Model of Restenosis
New Zealand White rabbits (Harlan Laboratories, Jerusalem, Israel) weighing 2.5 to 3.5 kg were used in accordance with the guidelines for animal care of the Hebrew University of Jerusalem and National Institutes of Health (USA). Animals were fed an atherogenic diet of 2% cholesterol and 6% peanut oil, starting 30 days before angioplasty. Hypercholesterolemia was ascertained (plasma cholesterol: 1200 mg/dL). Animals were anesthetized by xylazine (7 mg/kg) and ketamine (40 mg/kg). Heparin (200 U/kg), atropine (0.05 mg), and norfloxacin nicotinate (70 mg) were given. […] The control animals received saline. An investigator blinded to the type of experimental group performed the experiments. After euthanasia with pentothal, arteries were perfusion-fixed in situ with 150 mL of 4% formaldehyde solution (pH 7.4), processed for morphometric analysis, and stained with Verhoeff elastin staining, Mayer hematoxylin and eosin, and modified Movat pentachrome. Five animals were used in the experiment and five in the control group.
The marked inhibition of restenosis is unparalleled to other therapeutic modalities in this model (various antiinflammatories or antiproliferative agents). […] It should be noted that the larger lumen in the treatment group was achieved despite the general smaller size of the artery.

The next series concerns the target T1, MMP-1 (Homo sapiens, UniProt P03956).
T1 sequence (P03956 100-469): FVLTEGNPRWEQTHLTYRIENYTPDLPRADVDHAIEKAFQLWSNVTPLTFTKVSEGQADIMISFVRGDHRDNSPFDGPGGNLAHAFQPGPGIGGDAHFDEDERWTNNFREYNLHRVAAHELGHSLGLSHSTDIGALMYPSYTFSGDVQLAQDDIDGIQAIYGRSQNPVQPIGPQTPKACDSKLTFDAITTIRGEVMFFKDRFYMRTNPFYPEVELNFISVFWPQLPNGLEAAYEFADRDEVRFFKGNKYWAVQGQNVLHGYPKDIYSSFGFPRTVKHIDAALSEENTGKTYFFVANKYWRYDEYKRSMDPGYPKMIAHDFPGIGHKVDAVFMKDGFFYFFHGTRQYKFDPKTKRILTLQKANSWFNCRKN
Nature of the series: Selectivity towards different MMPs: MMP-1. It is filed as biochemical. Conditions: Table 2.

The next series concerns the target MMP-8 (Homo sapiens, UniProt P22894). Briefly: Selectivity towards different MMPs: MMP-8. It counts as biochemical. Conditions: Table 2.
The next series has as its system Endothelial cells. Nature of the series: Endothelial cell capillary tube formation. It is filed as cell-based. The conditions noted are these: read-out: Capillary Formation Inhibition % At 50 μM. From the text:
Endothelial Cell Capillary Tube Formation
Some of the compounds were examined as to their potency to inhibit capillary formation, which is an in vitro model of angiogenesis, an essential step in the development of primary tumor and metastatic lesions. Endothelial cell migration to the newly formed tumor is the initial phase of angiogenesis, and is dependent on MMP expression. By using this assay that measures endothelial cell tube formation, the effects of some carbamoylphosphonates on angiogenesis at concentrations ranging from 100-5 μM were evaluated.
Description of the Endothelial Cell Capillary Tube Formation Experiment
Endothelial cells are harvested by 1 mM EDTA, and added to a Matrigel layer in a 24 well plate at 50,000 cells per well. After attachment, culture media (1 ml) is added and the plate is incubated as a monolayer culture. The plates are analyzed hourly using Hoffinan optics. This assay is used to evaluate inhibitory factors or stimulatory factors on capillary like structure formation, which may be added into the culture media.

The subject of another series is murine melanoma. Briefly: Tumor growth and metastasis in vivo, murine melanoma model. Set-up: species or system mice. The conditions noted are these: Mus musculus, 504 h. The text has this: Tumor Growth and Metastasis in Animal Models—in vivo Test
The abilities of the novel carbamoylphosphonates to inhibit the formation of metastatic lesions in vivo were examined in the murine melanoma model both by intraperitoneal (IP) and peroral (PO) administration. […] This is especially important, since oral administration is the most convenient one for the patient, especially for long term chronic treatments such as those envisaged for drugs that are the subject of this application.

In series [2] the test system is Human prostate tumor cells DU145, PC3 or LMCap. Nature of the series: Orthotopic prostate tumor model. Conditions: 50 mg/kg IP daily for 5 weeks, vs untreated control. It counts as in vivo, mice. As for the experimental part:
Human prostate tumor cells DU145, PC3 or LMCap transfected with a luciferase gene were injected orthotopically into the prostate of male mice (2×10^6 cells/mouse). […] The mice were monitored for local tumor growth and metastasis formation with a cooled charged coupled device camera (CCCD) sensitive to photons, weekly, starting 14 days after tumor implantation. The emitted photons are converted into a digitalized image proportional to the amount of photons emitted by the tumor cell upon exposure to luciferin.

The target of the next series is MMP-3 (Homo sapiens, UniProt P08254). Nature of the series: Selectivity towards different MMPs: MMP-3. It is filed as biochemical. Conditions: Table 2.
Sequence of MMP-3 (P08254 100-477, species assumed): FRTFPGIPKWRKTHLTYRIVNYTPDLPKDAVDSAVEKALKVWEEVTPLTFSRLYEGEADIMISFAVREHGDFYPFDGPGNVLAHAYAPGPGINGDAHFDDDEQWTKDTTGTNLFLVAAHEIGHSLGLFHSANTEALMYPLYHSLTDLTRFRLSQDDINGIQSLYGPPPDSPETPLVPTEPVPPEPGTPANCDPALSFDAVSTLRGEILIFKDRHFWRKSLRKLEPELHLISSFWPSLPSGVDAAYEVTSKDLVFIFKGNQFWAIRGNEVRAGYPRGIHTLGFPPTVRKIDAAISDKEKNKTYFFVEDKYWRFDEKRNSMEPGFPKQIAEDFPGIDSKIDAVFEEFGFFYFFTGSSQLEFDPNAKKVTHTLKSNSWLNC
The target in the next series is T2, recombinant MMP-9 (Homo sapiens, UniProt P14780).
T2 construct: purchased
T2 sequence (P14780 94-707, species assumed): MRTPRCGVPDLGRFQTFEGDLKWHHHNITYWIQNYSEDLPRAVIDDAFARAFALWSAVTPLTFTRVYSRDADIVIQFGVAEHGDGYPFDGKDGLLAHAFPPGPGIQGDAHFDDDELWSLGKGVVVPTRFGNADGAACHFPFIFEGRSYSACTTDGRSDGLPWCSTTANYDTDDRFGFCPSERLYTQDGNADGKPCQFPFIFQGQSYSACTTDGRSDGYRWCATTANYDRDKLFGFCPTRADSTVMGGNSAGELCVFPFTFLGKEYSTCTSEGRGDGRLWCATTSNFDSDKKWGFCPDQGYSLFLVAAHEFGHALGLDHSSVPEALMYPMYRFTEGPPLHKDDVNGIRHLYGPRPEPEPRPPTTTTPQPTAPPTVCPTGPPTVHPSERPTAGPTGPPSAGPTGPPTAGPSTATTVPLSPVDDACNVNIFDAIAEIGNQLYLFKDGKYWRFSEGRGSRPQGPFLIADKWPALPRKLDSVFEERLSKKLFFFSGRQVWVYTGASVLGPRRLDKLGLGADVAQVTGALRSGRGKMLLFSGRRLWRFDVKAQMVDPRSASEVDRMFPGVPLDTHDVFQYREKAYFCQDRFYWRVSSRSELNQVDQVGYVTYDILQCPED
Nature of the series: MMP inhibitory potency in vitro, succinylated-gelatin colorimetric assay. It counts as biochemical. As for the experimental part: (§1) Determination of MMP Inhibitory Potency (IC50 Values) in vitro
(§2) The commercially available recombinant MMP-2 and MMP-9 enzymes were incubated with succinylated-gelatin at four different concentrations for 3 h. The examined compounds were added at four to six different concentrations to the recombinant enzymes and the inhibitory potencies were expressed in a colorimetric change measured by an ELISA reader. The inhibitory activity (IC50) was calculated from the kinetic data obtained.

The next series deals with T3, recombinant MMP-2 (Homo sapiens, UniProt P08253).
T3 construct: purchased
T3 sequence (P08253 110-660): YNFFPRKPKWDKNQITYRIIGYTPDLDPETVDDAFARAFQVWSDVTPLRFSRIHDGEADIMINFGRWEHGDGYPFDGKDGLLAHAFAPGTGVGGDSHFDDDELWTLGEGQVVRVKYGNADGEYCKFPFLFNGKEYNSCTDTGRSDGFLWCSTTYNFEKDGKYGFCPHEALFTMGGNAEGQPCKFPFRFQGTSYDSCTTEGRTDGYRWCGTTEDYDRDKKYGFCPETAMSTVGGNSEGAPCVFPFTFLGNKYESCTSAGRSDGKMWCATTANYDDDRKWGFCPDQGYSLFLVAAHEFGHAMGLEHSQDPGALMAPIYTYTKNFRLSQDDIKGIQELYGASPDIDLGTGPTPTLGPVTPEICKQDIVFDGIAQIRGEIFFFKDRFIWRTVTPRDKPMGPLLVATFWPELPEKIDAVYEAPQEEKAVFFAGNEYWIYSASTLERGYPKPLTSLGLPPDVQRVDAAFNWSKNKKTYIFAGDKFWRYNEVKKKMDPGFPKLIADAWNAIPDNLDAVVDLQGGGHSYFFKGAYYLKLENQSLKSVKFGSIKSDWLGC
The series is described as above. It counts as biochemical. The method, then: as §1, §2

Sequence of MMP-8 (P22894 101-467, species assumed): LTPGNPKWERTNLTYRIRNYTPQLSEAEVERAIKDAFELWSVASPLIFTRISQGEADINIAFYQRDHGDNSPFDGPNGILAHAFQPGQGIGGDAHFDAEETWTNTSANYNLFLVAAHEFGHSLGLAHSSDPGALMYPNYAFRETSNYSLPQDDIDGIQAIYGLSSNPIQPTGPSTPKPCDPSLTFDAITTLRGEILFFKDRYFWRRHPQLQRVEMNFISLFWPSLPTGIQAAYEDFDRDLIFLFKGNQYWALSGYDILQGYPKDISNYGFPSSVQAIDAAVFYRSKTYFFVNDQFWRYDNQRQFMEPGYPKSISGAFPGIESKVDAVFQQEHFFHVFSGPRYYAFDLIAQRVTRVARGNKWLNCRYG

Broadly, the inhibition is the change of the read-out against control, counted positive when it falls. A word on the IC50: it is the concentration at which inhibition is half-maximal. Take `N[C@@H]1CCCC[C@@H]1NC(=O)P(=O)(O)O` (relative stereo) [Compound 11, N-(cis-2-aminocyclohexyl)carbamoylphosphonic acid]: the values for the inhibition at 50 µM in the series on cancer cells and in the series on Endothelial cells were 62% and 72%, respectively. For the same molecule, the toxicity entry in [1] is “devoid of any toxicity even at 10 times the effective dose, namely at 500 mg/kg”. Also, the inhibition of restenosis entry in the series on restenosis was “significant and marked inhibition of restenosis; also recorded: selective in vivo activity against restenosis”. In addition, the IC50 on MMP-1 was more than 100 µM; against MMP-8 it was more than 100 µM; against MMP-3, more than 100 µM; at recombinant MMP-9, 20 µM; on recombinant MMP-2 it was 0.06 µM. Further, the inhibition in vivo at 50 mg/kg turned out to be 77% in the series with murine melanoma (ip, read-out: In vivo murine melanoma % reduction IP) and 86% with murine melanoma (po, read-out: In vivo murine melanoma % reduction PO). The “tumor dissemination (metastatic spread)” value in [2] is reported as “significantly lower tumor dissemination”. Further, the “tumor volume (local tumor growth)” value in series [2] is recorded as “significantly lower tumor volume”.
